Measured values published in patent publication US11198673B2, “Therapeutic compounds and compositions” (eXIthera Pharmaceuticals, Inc., priority 2014, dated 2021).

Tests used:
[1] = in vitro; details: both, human, plasma, pH 7.4
Description: The following procedure was used to determine the plasma protein binding of a test compound in pooled plasma from human (mixed gender) via equilibrium dialysis in a 96-well plate format. The dialysate compartment is loaded with phosphate-buffered saline (pH 7.4) and the sample side is loaded with plasma spiked with the test compound at a concentration of 10 μM. After loading, samples are covered and incubated for 4 hours at 37° C. After incubation, each compartment is sampled, diluted with acetonitrile/buffer and centrifuged. The supernatants are analyzed by HPLC-MS/MS. The amount measured in the plasma compartment includes both free and bound drug, while that on the buffer side represents free drug only; the differences are used to calculate the percentage plasma protein bound.

[2] = target: T1, Thrombin (Homo sapiens, UniProt P00734); assay: Dose response assay for protease inhibitors: thrombin (FXIa fold selectivity); type: biochemical; details: fold selectivity for FXIa over thrombin
T1 construct: Thrombin; 0.2 μM in 50% glycerol (7.34 μg/mL)

[3] = physchem; type: physicochemical; details: pH 7.4, aqueous buffer, kinetic from dmso stock
Description: The test compound was prepared at 200 μM in PBS from a 10 mM DMSO stock solution. The final DMSO concentration was 2%. The PBS buffer samples were mixed thoroughly followed by incubation at room temperature for 24 h. At the end of the incubation, the PBS buffer samples were centrifuged and supernatants analyzed by HPLC.

[4] = target: T2, Factor Xa (Homo sapiens, UniProt P00742); assay: Dose response assay for protease inhibitors: Factor Xa (FXIa fold selectivity); type: biochemical; details: fold selectivity for FXIa over Factor Xa
T2 construct: Factor Xa; 0.2 μM in 50% glycerol (9.2 μg/mL)
T2 sequence (P00742 235-488 limits assumed): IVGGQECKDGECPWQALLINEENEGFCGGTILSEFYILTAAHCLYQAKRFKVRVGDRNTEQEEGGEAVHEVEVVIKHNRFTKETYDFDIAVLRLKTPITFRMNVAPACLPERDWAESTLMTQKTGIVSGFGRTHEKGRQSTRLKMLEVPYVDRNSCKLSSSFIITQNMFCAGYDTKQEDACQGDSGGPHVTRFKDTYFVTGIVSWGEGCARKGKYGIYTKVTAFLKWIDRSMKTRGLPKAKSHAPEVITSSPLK
T2 sequence (P00742 41-179 partner limits assumed): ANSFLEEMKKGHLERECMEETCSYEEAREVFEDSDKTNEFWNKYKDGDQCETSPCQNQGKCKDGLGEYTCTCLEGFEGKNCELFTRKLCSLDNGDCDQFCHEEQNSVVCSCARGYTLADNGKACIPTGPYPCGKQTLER

[5] = in vitro; details: both, human, microsomes, pH 7.4
Description: The following procedure was used to determine the stability of a test compound in pooled liver microsomes from human (mixed gender) in 96-well plate format. The test compound was quantified at five time points by HPLC-MS/MS analysis. The final microsomal protein concentration in the assay was 0.1 mg/mL. […] The test compound was pre-incubated with human liver microsomes in phosphate buffer (pH 7.4) for 5 min in a 37° C. shaking waterbath. The reaction was initiated by adding NADPH-generating system and incubated for 0, 15, 30, 45, and 60 minutes. The reaction was stopped by transferring the incubation mixture to acetonitrile/methanol. Samples were then mixed and centrifuged and the supernatants used for HPLC-MS/MS analysis. Peak areas corresponding to the test compound were recorded. The compound remaining was calculated by comparing the peak area at each time point to time zero.

[6] = test system: Trypsin; assay: Dose response assay for protease inhibitors: trypsin (FXIa fold selectivity); type: biochemical; details: fold selectivity for FXIa over trypsin
[7] = β-Lactam stability in rat plasma; type: in vitro ADME; details: normal rat plasma, room temperature; read-out: Rat Plasma Stability (T1/2; min)
How it was run: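 Compounds incubated in normal rat plasma at room temperature, sampled into acetonitrile from 2 to 480 min. Supernatants analysed by HPLC-MS on C18, extracted ion chromatograms of parent and parent+18 (H2O adduct) integrated; T½ = ln(2)/k from single-phase exponential decay fit.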

[8] = target: T3, human Factor XIa (Homo sapiens, UniProt P03951); assay: Factor XIa enzyme inhibition assay (IC50, purified enzyme); type: biochemical; details: purified enzyme 0.25 nM, substrate 50 μM; read-out: Potency hFXIa IC50
T3 construct: Enzyme: Factor XIa; 0.25 μM in 50% glycerol (20 μg/mL)
T3 sequence (P03951 388-625 limits assumed): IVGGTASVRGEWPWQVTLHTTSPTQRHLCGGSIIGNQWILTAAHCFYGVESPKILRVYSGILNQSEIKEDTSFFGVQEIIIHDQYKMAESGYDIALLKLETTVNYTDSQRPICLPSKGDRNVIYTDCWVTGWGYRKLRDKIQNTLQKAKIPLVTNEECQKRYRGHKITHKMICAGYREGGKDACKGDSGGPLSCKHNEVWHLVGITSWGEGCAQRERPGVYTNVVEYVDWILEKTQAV
T3 sequence (P03951 19-387 partner limits assumed): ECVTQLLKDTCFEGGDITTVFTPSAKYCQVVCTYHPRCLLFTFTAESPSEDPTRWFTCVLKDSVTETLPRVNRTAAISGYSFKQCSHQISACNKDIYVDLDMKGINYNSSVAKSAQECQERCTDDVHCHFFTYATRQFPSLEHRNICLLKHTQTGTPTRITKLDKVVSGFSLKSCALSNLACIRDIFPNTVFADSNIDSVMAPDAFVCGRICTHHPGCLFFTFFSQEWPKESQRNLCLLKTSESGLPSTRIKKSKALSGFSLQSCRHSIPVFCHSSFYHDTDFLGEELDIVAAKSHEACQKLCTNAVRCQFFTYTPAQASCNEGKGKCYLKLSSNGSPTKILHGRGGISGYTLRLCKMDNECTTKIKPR
How it was run: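 Fluorogenic Glp-Pro-Arg-AMC cleavage, 50 μM substrate, 0.25 nM enzyme, in 20 mM Hepes pH 7.4, 150 mM NaCl, 0.02% Tween 20. Serial two-fold compound dilutions from starting concentrations of 20, 2 and 0.2 μM. Read every minute for 30 min at 30° C; IC50 from a four-parameter fit of dose-response.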

fraction unbound at 4 h, 10 µM [1] | FXIa Fold Selectivity Thrombin [2] | solubility at 4 h [3] | FXIa Fold Selectivity FXa [4] | half-life at 0.1 µM [5] | half-life [7] | IC50 [8] | SMILES | FXIa Fold Selectivity Trypsin [6]
< 0.02 | G (“G” indicates 1-500) | > 100 µM | G (“G” indicates 1-500) | 0.5 to 1 h | > 1.67 h | 100 to 1000 nM | O=C(O)[C@@H]1[C@@H](CCc2cccc(Cl)c2)C(=O)N1C(=O)N[C@@H](C1CCCCC1)C(F)(F)F [Example 134] | G (“G” indicates 1-500)
0.02 to 0.1 | H (“H” indicates 500-1000) | > 100 µM | G (“G” indicates 1-500) | > 1 h | > 1.67 h | 100 to 1000 nM | C[C@@H](NC(=O)N1C(=O)[C@H](Cc2ccncc2)[C@H]1C(=O)O)c1ccc2c(c1)OC(F)(F)O2 [Example 169] | G (“G” indicates 1-500)
